Data on two compounds can be found in US20260217837A1, “FGFR3 BINDING MOLECULES AND METHODS OF USE THEREOF” (Regeneron Pharmaceuticals, Inc., priority 2023, published 2026).

The subject of experiment [1] is locally advanced or metastatic bladder cancer. Particulars: patients who receive cisplatin; Wong & Rosenberg, 2021; cited from earlier work.
For experiment [2], the system named is BaF3 cells expressing FGFR3 V557L. Put plainly: BaF3 cell viability, FGFR3 V557L. It is filed as cell-based. The settings on record: 72 hours, FGF1/heparin. The source says:
(§1) cDNA expressing FGFR3 mutants (S249C, S248C, Y375C, V555M, V555L, S249C+V555M, or S249C+V555L) were synthesized and cloned into pLVX Lenti-viral vector (Thermo Fisher). Viral particles were generated by lipofectamine transfection of LentiX 293T cells using Lenti-X packaging single shots following manufacturer's protocol (Clontech/Takara) and concentrated using Lenti-X concentrator and titer determined using Lenti-X p24 rapid titer kit (Clontech/Takara). BaF3 cells were transduced with virus at ~0.3 MOI.
(§2) For cell proliferation assays, engineered BaF3/hFGFR3 cells grown in complete medium were washed and plated in IL-3-free culture media±5 μg/ml heparin and 1 nM human FGF1. Cells were plated out at 1×10^5 cells/well into 96-well plates, followed by the addition of 1:3 serially diluted antibodies as indicated in figures. After addition of antibodies, cells were incubated at 37° C. for 72 h followed by the addition of CellTiter-Glo™ (Promega) reagent. The luminescent signal was detected by Envision plate reader (PerkinElmer). Data was analyzed using Prism software (GraphPad). […]

Experiment [3] deals with BaF3 cells expressing the double mutant FGFR3 S249C+V557L. Put plainly: BaF3 cell viability, FGFR3 S249C+V557L. It counts as cell-based. The settings on record: 72 hours, FGF1/heparin.
Source text: as §1, §2

The subject of experiment [4] is BaF3 cells expressing the double mutant FGFR3 S249C+V557M. Put plainly: BaF3 cell viability, FGFR3 S249C+V557M. It counts as cell-based. The settings on record: 72 hours, FGF1/heparin.
Source text: as §1, §2

In experiment [5] the test system is BaF3 cells expressing FGFR3 V557M. Put plainly: BaF3 cell viability, FGFR3 V557M. It counts as cell-based. Particulars: 72 hours, FGF1/heparin.
Source text: as §1, §2

`N.N.[Cl][Pt][Cl]` [cisplatin]: the median overall survival result in experiment [1] was “approximately 14 months”.

As to AZD4547 [reference compound], the “growth of BaF3 cells expressing FGFR3 V557L” value in experiment [2] is recorded as “ineffective”. For the same compound, in experiment [3], the “growth of BaF3 cells expressing FGFR3 S249C+V557L” value is reported as “ineffective”. Moreover, the “growth of BaF3 cells expressing FGFR3 S249C+V557M” value in experiment [4] is “ineffective”. Also, the “growth of BaF3 cells expressing FGFR3 V557M” value in experiment [5] is “ineffective”.
